# Assay results: the NIST ThermoML archive (doi:10.1016/j.jct.2016.12.007)
# ± gives the expanded uncertainty stated by the source.
# Assays:
# [1] = wn = mass fraction of the nth substance listed; conditions: 101.3 kPa, Liquid, Vibrating tube method
# [2] = refractive index (Na D-line) (dimensionless); wn = mass fraction of the nth substance listed; conditions: 101.3 kPa, Liquid, Standard Abbe refractometry
"mass density ([1]; 288.15 K, w1 = 0.2622) [kg/m3]","mass density ([1]; 298.15 K, w1 = 0.2625) [kg/m3]","mass density ([1]; 308.15 K, w1 = 0.2666) [kg/m3]","refractive index ([2]; 288.15 K, w1 = 0.2622)","refractive index ([2]; 298.15 K, w1 = 0.2625)","refractive index ([2]; 308.15 K, w1 = 0.2666)","mass density ([1]; 288.15 K, w1 = 0.4695) [kg/m3]","mass density ([1]; 298.15 K, w1 = 0.4841) [kg/m3]","mass density ([1]; 308.15 K, w1 = 0.5041) [kg/m3]","refractive index ([2]; 288.15 K, w1 = 0.4695)","refractive index ([2]; 298.15 K, w1 = 0.4841)","refractive index ([2]; 308.15 K, w1 = 0.5041)",SMILES
1201 ± 4.2,1197.8 ± 4.2,1193.6 ± 4.2,1.3811 ± 0.0005,1.3795 ± 0.0005,1.3781 ± 0.0005,,,,,,,[Cl-].[Na+] [sodium chloride] + O
,,,,,,1480.4 ± 4.3,1500.3 ± 4.3,1517.5 ± 4.3,1.3874 ± 0.0005,1.3883 ± 0.0005,1.3894 ± 0.0005,[Cl-].[Rb+] [rubidium chloride] + O
